According to ChEMBL document CHEMBL6114990, “Design, synthesis, and biological evaluation of quinazolinone-dihydropyrimidinone as a potential anti-diabetic agent via GLUT4 translocation stimulation” (Eur J Med Chem, 2025):
Values after ≈ are worked out from the molar mass of the structure shown. Active and inactive are the calls of the source. No cut-off for these calls is given here.

How the values were obtained:
[1] = molecular target: T1, Solute carrier family 2, facilitated glucose transporter member 4 (Rattus norvegicus) (UniProt P19357); assay: Induction of GLUT4 translocation in rat L6-GLUT4myc skeletal muscle cells assessed as translocation to cell surface by measuring fold stimulation at 10 uM measured after 16 hrs by antibody-coupled colorimetric assay; format: cell-based; settings: filed as activator
T1 sequence (whole entry): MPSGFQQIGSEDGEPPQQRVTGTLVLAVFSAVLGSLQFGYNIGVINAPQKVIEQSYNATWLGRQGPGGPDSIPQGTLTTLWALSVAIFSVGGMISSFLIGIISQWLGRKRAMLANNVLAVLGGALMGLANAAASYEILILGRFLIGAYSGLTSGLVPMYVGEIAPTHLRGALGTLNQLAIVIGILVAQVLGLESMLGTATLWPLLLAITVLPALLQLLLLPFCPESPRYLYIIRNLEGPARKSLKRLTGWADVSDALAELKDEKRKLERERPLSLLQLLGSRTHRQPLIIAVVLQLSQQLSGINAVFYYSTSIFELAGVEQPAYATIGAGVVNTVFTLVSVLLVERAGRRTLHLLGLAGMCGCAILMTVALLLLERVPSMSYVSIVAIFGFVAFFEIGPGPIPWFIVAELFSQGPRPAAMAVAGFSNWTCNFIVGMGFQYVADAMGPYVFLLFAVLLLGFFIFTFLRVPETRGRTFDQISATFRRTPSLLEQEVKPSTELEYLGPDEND

[2] = tested on: Rattus norvegicus; assay: Anti-hyperglycemic activity against STZ-induced diabetic Sprague-Dawley rat model assessed as reduction in blood glucose level at 300 mg/kg, po measured after 5 hrs relative to control; format: functional; set-up: scale not given: the % may be the effect or the level left
[3] = molecular target: T1, Solute carrier family 2, facilitated glucose transporter member 4 (Rattus norvegicus); assay: Induction of GLUT4 translocation in rat L6-GLUT4myc skeletal muscle cells assessed as translocation to cell surface by measuring fold stimulation at 500 uM measured after 16 hrs by antibody-coupled colorimetric assay; format: cell-based; settings: filed as activator
[4] = molecular target: T1, Solute carrier family 2, facilitated glucose transporter member 4 (Rattus norvegicus); assay: Induction of GLUT4 translocation in rat L6-GLUT4myc skeletal muscle cells assessed as translocation to cell surface measured after 16 hrs by antibody-coupled colorimetric assay; format: cell-based; settings: filed as activator, dose 5-25 µM
[5] = molecular target: 5'-AMP-activated protein kinase catalytic subunit alpha-1 (Rattus norvegicus) (UniProt P54645); assay: Activation of AMPKalpha in rat L6-GLUT4myc cells assessed as induction of AMPKalpha phosphorylation at Thr172 residue at 10 uM measured for 16 hrs by Western blot analysis; format: cell-based; settings: filed as activator
[6] = tested on: L6-GLUT4myc; assay: Induction of AKT phosphorylation at Ser 473 residue in rat L6-GLUT4myc skeletal muscle cells at 10 uM measured after 16 hrs by Western blot analysis; format: cell-based
[7] = molecular target: T1, Solute carrier family 2, facilitated glucose transporter member 4 (Rattus norvegicus); assay: (§1) Induction of insulin-induced GLUT4 translocation in rat L6-GLUT4myc skeletal muscle cells assessed as translocation to cell surface at 10 uM measured after 16 hrs incubation (final 3 hrs under serum starved medium) followed by stimulated with 100 nM insulin for 20 mins in presence of wortmannin PI3 Kinase inhibitor by antibody-coupled colorimetric assay; format: cell-based; settings: time 980.0 min
[8] = tested on: L6-GLUT4myc; assay: Effect on AKT2 expression in rat L6-GLUT4myc cells at 10 uM incubated for 16 hrs by qRT-PCR analysis; format: functional, cell-based
[9] = Thermodynamic solubility of compound in HCL buffer at pH 1.2 measured for 24 hrs by HPLC analysis; format: physicochemical; settings: read-out: Therm_solubility
[10] = Thermodynamic solubility of compound in distilled water measured for 24 hrs by HPLC analysis; format: physicochemical; settings: read-out: Therm_solubility
[11] = tested on: Rattus norvegicus; assay: Anti-hyperglycemic activity against STZ-induced diabetic Sprague-Dawley rat model assessed as reduction in blood glucose level at 100 mg/kg, po measured after 5 hrs relative to control; format: functional; set-up: scale not given: the % may be the effect or the level left
[12] = molecular target: T1, Solute carrier family 2, facilitated glucose transporter member 4 (Rattus norvegicus); assay: as §1, with “mins” for “mins in presence of wortmannin PI3 Kinase inhibitor”; format: cell-based; settings: filed as activator, time 980.0 min
[13] = Stability of compound in simulated gastric fluid at pH 1.2 assessed as parent compound remaining measured after 120 mins by LC-MS/MS analysis; format: physicochemical; settings: read-out: Stability
[14] = Metabolic stability in rat liver microsome assessed as half life measured upto 60 mins by HPLC analysis; format: ADME; settings: microsomes, 1 h
[15] = tested on: L6-GLUT4myc; assay: Effect on IRS1 expression in rat L6-GLUT4myc cells at 10 uM incubated for 16 hrs by qRT-PCR analysis; format: functional, cell-based
[16] = Metabolic stability in rat liver microsome assessed as intrinsic clearance measured upto 60 mins by HPLC analysis; format: ADME; settings: microsomes, 1 h
[17] = Stability of compound in simulated physiological fluid at pH 7.4 assessed as parent compound remaining measured after 120 mins by LC-MS/MS analysis; format: physicochemical; settings: read-out: Stability
[18] = tested on: L6-GLUT4myc; assay: Effect on GLUT4 expression in rat L6-GLUT4myc cells at 10 uM incubated for 16 hrs by qRT-PCR analysis; format: functional, cell-based
[19] = Stability of compound in simulated intestinal fluid at pH 6.8 assessed as parent compound remaining measured after 120 mins by LC-MS/MS analysis; format: physicochemical; settings: read-out: Stability
[20] = Thermodynamic solubility of compound in tris buffer at pH 7.4 measured for 24 hrs by HPLC analysis; format: physicochemical; settings: read-out: Therm_solubility

Sequence of 5'-AMP-activated protein kinase catalytic subunit alpha-1 (Rattus norvegicus) (P54645 whole entry): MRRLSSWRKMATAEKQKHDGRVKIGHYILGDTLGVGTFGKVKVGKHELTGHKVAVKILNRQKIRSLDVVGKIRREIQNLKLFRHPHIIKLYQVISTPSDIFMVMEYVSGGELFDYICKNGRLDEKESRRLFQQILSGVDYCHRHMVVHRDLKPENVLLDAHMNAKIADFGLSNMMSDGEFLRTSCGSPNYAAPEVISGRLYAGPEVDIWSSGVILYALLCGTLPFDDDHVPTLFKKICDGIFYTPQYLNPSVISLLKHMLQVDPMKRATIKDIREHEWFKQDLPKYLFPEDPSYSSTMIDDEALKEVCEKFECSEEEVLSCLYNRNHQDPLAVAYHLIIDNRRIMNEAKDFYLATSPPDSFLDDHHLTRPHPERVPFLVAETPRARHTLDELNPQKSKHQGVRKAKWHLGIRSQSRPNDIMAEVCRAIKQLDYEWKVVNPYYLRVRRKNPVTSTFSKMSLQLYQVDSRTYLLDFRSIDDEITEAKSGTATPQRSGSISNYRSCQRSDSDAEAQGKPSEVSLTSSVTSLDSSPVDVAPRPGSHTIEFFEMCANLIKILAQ

Work on `CC1=C(C(=O)Nc2ccc(-c3nc4ccccc4c(=O)n3C)cc2)C(c2ccc(Cl)cc2)NC(=O)N1` (stereo not given) yielded a fold change (FC) [1] of 1.7.
In the case of `CC1=C(C(=O)Nc2ccc(-c3nc4ccccc4c(=O)n3C)cc2)C(c2ccc(Cl)c(Cl)c2)NC(=O)N1` (stereo not given), the fold change (FC) [1] is reported as 1.63.
With `CN(C)C(=N)NC(=N)N` [METFORMIN] the Activity [2] was 64.7% and the fold change (FC) [3] was 1.65.
With `CC1=C(C(=O)Nc2ccc(-c3nc4ccccc4c(=O)n3C)cc2)C(c2ccc([N+](=O)[O-])cc2)NC(=O)N1` (stereo not given) the fold change (FC) [1] was 1.21.
Work on `CCn1c(-c2ccc(NC(=O)C3=C(C)NC(=O)NC3c3scnc3C)cc2)nc2ccccc2c1=O` (stereo not given) yielded a fold change (FC) [1] of 1.31.
`CC1=C(C(=O)Nc2ccc(-c3nc4ccccc4c(=O)n3C)cc2)C(c2ccccc2Cl)NC(=O)N1` (stereo not given) showed a fold change (FC) [1] of 1.51.
With `CC1=C(C(=O)Nc2ccc(-c3nc4ccccc4c(=O)n3C)cc2)C(c2ccc(F)cc2)NC(=O)N1` (stereo not given) the fold change (FC) [1] was 1.27.
Compound `CC1=C(C(=O)Nc2cccc(-c3nc4ccccc4c(=O)n3C)c2)C(c2ccc(F)cc2)NC(=O)N1` (stereo not given) has a fold change (FC) [1] of 1.13.
With `COc1ccc(C2NC(=O)NC(C)=C2C(=O)Nc2ccc(-c3nc4ccccc4c(=O)n3C)cc2)cc1OC` (stereo not given) the fold change (FC) [1] was 1.01.
Work on `CC1=C(C(=O)Nc2cccc(-c3nc4ccccc4c(=O)n3C)c2)C(c2cccs2)NC(=O)N1` (stereo not given) yielded a fold change (FC) [1] of 1.16.
In the case of `CC1=C(C(=O)Nc2ccc(-c3nc4ccccc4c(=O)n3C)cc2)C(c2ccco2)NC(=O)N1` (stereo not given), the fold change (FC) [1] is reported as 1.11.
`CCn1c(-c2ccc(NC(=O)C3=C(C)NC(=O)NC3c3ccc(Cl)cc3)cc2)nc2ccccc2c1=O` (stereo not given) gave a fold change (FC) [1] of 1.7.
For `CC1=C(C(=O)Nc2ccc(-c3nc4ccccc4c(=O)n3C)cc2)C(c2cccs2)NC(=O)N1` (stereo not given), the fold change (FC) [1] was 1.27.
`CC1=C(C(=O)Nc2ccc(-c3nc4ccccc4c(=O)n3C)cc2)C(c2ccc(C(F)(F)F)cc2)NC(=O)N1` (stereo not given) gave a fold change (FC) [1] of 1.54.
For `CC1=C(C(=O)Nc2ccc(-c3nc4ccccc4c(=O)n3C)cc2)C(c2scnc2C)NC(=O)N1` (stereo not given), the fold change (FC) [1] was 1.05.
In the case of `CC1=C(C(=O)Nc2cccc(-c3nc4ccccc4c(=O)n3C)c2)C(c2ccc(Cl)cc2Cl)NC(=O)N1` (stereo not given), the fold change (FC) [1] is reported as 1.14.
In the case of `CC1=C(C(=O)Nc2ccc(-c3nc4ccccc4c(=O)n3C)cc2)C(c2ccc(C#N)cc2)NC(=O)N1` (stereo not given), the fold change (FC) [1] is reported as 1.1.
For `CC1=C(C(=O)Nc2ccc(-c3nc4ccccc4c(=O)n3C)cc2)C(c2cccc(Cl)c2)NC(=O)N1` (stereo not given), the Activity [4] was “Dose-dependent-effect” and the fold change (FC) [1] was 1.92.
`CCn1c(-c2ccc(NC(=O)C3=C(C)NC(=O)NC3c3ccco3)cc2)nc2ccccc2c1=O` (stereo not given) showed a fold change (FC) [1] of 1.32.
With `CC1=C(C(=O)Nc2ccc(-c3nc4ccccc4c(=O)n3C)cc2)C(c2ccc(Cl)cc2Cl)NC(=O)N1` (stereo not given) the Activity [5] was “Active”, the Activity [6] was “No effect” and the Activity [7] was “inactive”. For the same compound, the Activity [8] was “No effect”, the solubility thermodynamic at 24 h [9] was 23.8 µg/mL (≈ 44.6 µM) and the solubility thermodynamic at 24 h [10] was 0.36 µg/mL (≈ 0.674 µM). For the same compound, the Activity [11] was roughly 39.5%, the Activity [12] was “Active” and the remaining at 2 h [13] was no less than 60%. The t1/2 [14] was 3.16 min, the Activity [15] was “No effect” and the CLH [16] was 1.336 µL/min/mg. The remaining at 2 h [17] was no less than 60%, the Activity [4] was “Dose-dependent-effect” and the Activity [18] was “No effect”. It also gave a remaining at 2 h [19] of no less than 60%, a solubility thermodynamic at 24 h [20] of 0.25 µg/mL (≈ 0.468 µM) and a fold change (FC) [1] of 2.52.
For `CC1=C(C(=O)Nc2ccc(-c3nc4ccccc4c(=O)n3C)cc2)C(c2ccc(N(C)C)cc2)NC(=O)N1` (stereo not given), the fold change (FC) [1] was 1.08.
Compound `CCn1c(-c2ccc(NC(=O)C3=C(C)NC(=O)NC3c3ccccc3)cc2)nc2ccccc2c1=O` (stereo not given) has a fold change (FC) [1] of 1.32.
For `COc1ccc(C2NC(=O)NC(C)=C2C(=O)Nc2cccc(-c3nc4ccccc4c(=O)n3C)c2)cc1OC` (stereo not given), the fold change (FC) [1] was 1.02.
In the case of `COc1ccc(C2NC(=O)NC(C)=C2C(=O)Nc2ccc(-c3nc4ccccc4c(=O)n3C)cc2)cc1` (stereo not given), the fold change (FC) [1] is reported as 1.28.
In the case of `CC1=C(C(=O)Nc2ccc(-c3nc4cccc(Cl)c4c(=O)n3C)cc2)C(c2ccc(Cl)cc2Cl)NC(=O)N1` (stereo not given), the fold change (FC) [1] is reported as 1.15.
For `CC(=O)CC(=O)Nc1ccc(-c2nc3ccccc3c(=O)n2C)cc1`, the fold change (FC) [1] was 1.24.
Compound `CC1=C(C(=O)Nc2cccc(-c3nc4ccccc4c(=O)n3C)c2)C(c2ccc(Cl)cc2)NC(=O)N1` (stereo not given) has a fold change (FC) [1] of 1.17.
`CC1=C(C(=O)Nc2cccc(-c3nc4ccccc4c(=O)n3C)c2)C(c2ccc([N+](=O)[O-])cc2)NC(=O)N1` (stereo not given) showed a fold change (FC) [1] of 1.
`CC1=C(C(=O)Nc2cccc(-c3nc4ccccc4c(=O)n3C)c2)C(c2ccco2)NC(=O)N1` (stereo not given) showed a fold change (FC) [1] of 1.1.
Compound `CC1=C(C(=O)Nc2ccc(-c3nc4ccccc4c(=O)n3C)cc2)C(CC(C)C)NC(=O)N1` (stereo not given) has a fold change (FC) [1] of 1.14.
Compound `CCn1c(-c2ccc(NC(=O)C3=C(C)NC(=O)NC3c3ccsc3)cc2)nc2ccccc2c1=O` (stereo not given) has a fold change (FC) [1] of 1.29.
